Source: ChEMBL document CHEMBL5223116, “Combination of NSAIDs with donepezil as multi-target directed ligands for the treatment of Alzheimer's disease” (Bioorg Med Chem Lett, 2022)
Activity calls are given as the source filed them. No cut-off for these calls is given here.

What was measured:
Acetylcholinesterase [1] = target: T1, Acetylcholinesterase (Homo sapiens, UniProt P22303); experiment: Inhibition of AChE (unknown origin) by Ellman's method
Cholinesterase [2] = target: T2, Cholinesterase (Homo sapiens, UniProt P06276); experiment: Inhibition of BChE (unknown origin) by Ellman's method
T2 sequence (P06276 whole entry): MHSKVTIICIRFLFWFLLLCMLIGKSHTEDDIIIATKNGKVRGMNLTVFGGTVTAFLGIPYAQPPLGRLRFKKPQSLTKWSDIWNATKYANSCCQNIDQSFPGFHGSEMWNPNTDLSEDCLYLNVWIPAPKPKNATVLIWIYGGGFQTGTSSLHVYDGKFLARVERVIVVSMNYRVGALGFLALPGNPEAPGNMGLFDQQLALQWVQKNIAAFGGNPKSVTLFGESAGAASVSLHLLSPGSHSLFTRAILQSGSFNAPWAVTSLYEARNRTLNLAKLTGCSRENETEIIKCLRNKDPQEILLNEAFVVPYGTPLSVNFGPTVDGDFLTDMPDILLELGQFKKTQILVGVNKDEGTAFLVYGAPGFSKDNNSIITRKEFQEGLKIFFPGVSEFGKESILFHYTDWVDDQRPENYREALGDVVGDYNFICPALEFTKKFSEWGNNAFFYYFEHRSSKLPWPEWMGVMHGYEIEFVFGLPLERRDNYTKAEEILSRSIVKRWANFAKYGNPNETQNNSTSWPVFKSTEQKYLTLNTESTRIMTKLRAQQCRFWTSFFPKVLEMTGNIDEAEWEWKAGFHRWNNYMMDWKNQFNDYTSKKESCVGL

Acetylcholinesterase [3] = target: T1, Acetylcholinesterase; experiment: Inhibition of AChE (unknown origin) at 10 uM by Ellman's method
Cholinesterase [4] = target: T2, Cholinesterase; experiment: Inhibition of BChE (unknown origin) at 10 uM by Ellman's method
[5] = target: Prostaglandin G/H synthase 1 (Homo sapiens) (UniProt P23219); experiment: Inhibition of COX-1 (unknown origin) by enzyme immunoassay
Sequence of Prostaglandin G/H synthase 1 (Homo sapiens) (P23219 whole entry): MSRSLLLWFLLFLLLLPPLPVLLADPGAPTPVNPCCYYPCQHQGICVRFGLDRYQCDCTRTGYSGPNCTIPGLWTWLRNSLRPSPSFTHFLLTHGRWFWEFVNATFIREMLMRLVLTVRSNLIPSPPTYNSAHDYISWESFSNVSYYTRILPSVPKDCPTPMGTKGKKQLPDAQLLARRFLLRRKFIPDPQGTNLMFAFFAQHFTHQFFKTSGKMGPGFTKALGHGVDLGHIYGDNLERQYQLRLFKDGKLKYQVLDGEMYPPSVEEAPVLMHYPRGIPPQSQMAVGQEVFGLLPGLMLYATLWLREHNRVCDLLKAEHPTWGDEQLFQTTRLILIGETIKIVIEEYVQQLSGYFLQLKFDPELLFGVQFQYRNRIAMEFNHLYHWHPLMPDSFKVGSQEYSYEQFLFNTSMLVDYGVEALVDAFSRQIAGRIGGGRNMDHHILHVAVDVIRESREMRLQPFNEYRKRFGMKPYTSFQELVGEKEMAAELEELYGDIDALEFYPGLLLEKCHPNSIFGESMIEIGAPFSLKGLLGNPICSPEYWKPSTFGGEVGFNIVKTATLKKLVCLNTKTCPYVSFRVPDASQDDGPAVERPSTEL

[6] = target: T3, Prostaglandin G/H synthase 2 (Homo sapiens) (UniProt P35354); experiment: Inhibition of COX-2 (unknown origin) by enzyme immunoassay
T3 sequence (whole entry): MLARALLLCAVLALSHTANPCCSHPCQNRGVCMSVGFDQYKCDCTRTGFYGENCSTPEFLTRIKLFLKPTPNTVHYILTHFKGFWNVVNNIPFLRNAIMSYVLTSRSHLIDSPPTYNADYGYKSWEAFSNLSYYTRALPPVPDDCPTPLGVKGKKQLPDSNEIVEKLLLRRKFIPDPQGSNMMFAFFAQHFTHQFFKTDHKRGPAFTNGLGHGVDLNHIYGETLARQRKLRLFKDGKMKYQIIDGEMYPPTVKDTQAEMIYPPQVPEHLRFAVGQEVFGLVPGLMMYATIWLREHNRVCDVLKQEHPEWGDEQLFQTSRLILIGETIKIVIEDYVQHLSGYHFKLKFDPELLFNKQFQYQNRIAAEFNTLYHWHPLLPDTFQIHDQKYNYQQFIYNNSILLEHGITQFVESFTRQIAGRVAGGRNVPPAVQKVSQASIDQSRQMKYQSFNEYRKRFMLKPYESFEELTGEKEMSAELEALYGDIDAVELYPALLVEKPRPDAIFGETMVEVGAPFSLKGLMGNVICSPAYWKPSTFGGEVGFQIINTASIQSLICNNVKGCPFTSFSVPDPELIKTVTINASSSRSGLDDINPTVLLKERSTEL

BV-2 [7] = experiment: Antiinflammatory activity in mouse BV-2 cells assessed as decrease in LPS-induced IL-1beta secretion at 5 uM preincubated for 6 hrs followed by LPS stimulation and measured after 24 hrs by qRT-PCR analysis (reference value: 3.76); assay type: functional; details: time 30 hrs
BV-2 [8] = experiment: Antiinflammatory activity in mouse BV-2 cells assessed as decrease in LPS-induced IL-1beta secretion at 10 uM preincubated for 6 hrs followed by LPS stimulation and measured after 24 hrs by qRT-PCR analysis (reference value: 3.76); assay type: functional; details: time 30 hrs
BV-2 [9] = experiment: Antiinflammatory activity in mouse BV-2 cells assessed as decrease in LPS-induced TNFalpha secretion at 5 uM preincubated for 6 hrs followed by LPS stimulation and measured after 24 hrs by qRT-PCR analysis (reference value: 3.91); assay type: functional; details: time 30 hrs
BV-2 [10] = experiment: Antiinflammatory activity in mouse BV-2 cells assessed as decrease in LPS-induced TNFalpha secretion at 10 uM preincubated for 6 hrs followed by LPS stimulation and measured after 24 hrs by qRT-PCR analysis (reference value: 3.91); assay type: functional; details: time 30 hrs
PC-3 [11] = experiment: Cytotoxicity against […] cells assessed as reduction in cell viability at 0.1 to 10 uM by MTT assay; assay type: toxicity, cell-based; details: dose 0.1-10 µM
PC-3 [12] = experiment: Neuroprotective activity against Abeta42-induced cell death in […] cells by MTT assay; assay type: functional, cell-based; details: dose 0.1-10 µM
[13] = Stability of compound in PBS at pH 7.4 measured after 48 hrs by HPLC analysis; assay type: physicochemical; details: buffer, pH 7.4, 48 h
Cholinesterase [14] = target: T2, Cholinesterase; experiment: Potency index, ratio of donepezil IC50 to test compound IC50 for BChE (unknown origin)

T1 sequence (P22303 whole entry): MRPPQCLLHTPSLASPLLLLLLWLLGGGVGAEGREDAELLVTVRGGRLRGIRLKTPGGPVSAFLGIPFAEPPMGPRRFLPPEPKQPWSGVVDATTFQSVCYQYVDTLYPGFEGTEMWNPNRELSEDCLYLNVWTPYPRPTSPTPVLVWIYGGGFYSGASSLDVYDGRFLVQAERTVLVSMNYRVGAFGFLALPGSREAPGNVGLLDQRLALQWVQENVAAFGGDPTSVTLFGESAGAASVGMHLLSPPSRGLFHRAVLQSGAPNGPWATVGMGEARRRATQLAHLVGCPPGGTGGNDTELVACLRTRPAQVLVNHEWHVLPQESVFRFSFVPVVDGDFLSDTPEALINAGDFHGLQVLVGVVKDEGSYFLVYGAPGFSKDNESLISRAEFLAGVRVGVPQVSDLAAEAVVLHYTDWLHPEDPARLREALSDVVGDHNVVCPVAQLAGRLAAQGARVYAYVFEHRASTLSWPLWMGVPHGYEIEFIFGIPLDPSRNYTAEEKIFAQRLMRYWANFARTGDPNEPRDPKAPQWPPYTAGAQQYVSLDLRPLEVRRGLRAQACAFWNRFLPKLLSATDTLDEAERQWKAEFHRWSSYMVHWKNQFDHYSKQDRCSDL

SMILES	IC50 (Acetylcholinesterase [1]) [nM]	IC50 (Cholinesterase [2]) [nM]	also measured
COc1cc2c(cc1OC)/C(=N\NC(=O)c1ccccc1OC(C)=O)C(CC1CCN(Cc3ccccc3)CC1)C2 (centres undefined)	46	800	–
COc1ccc2c(c1)c(CC(=O)O)c(C)n2C(=O)c1ccc(Cl)cc1	–	–	inhibition (Acetylcholinesterase [3]): inactive; inhibition (Cholinesterase [4]): inactive
COc1ccc2cc([C@H](C)C(=O)N/N=C3\c4cc(OC)c(OC)cc4CC3CC3CCN(Cc4ccccc4)CC3)ccc2c1 (some centres undefined)	150	880	–
CC(C)Cc1ccc(C(C)C(=O)O)cc1 (centres undefined)	–	–	inhibition (Acetylcholinesterase [3]): inactive; inhibition (Cholinesterase [4]): inactive
COc1cc2c(cc1OC)/C(=N\NC(=O)CNC(=O)C(C)c1ccc(CC(C)C)cc1)C(CC1CCN(Cc3ccccc3)CC1)C2 (centres undefined)	1190	1640	–
COc1cc2c(cc1OC)/C(=N\N)C(CC1CCN(Cc3ccccc3)CC1)C2 (centres undefined)	190	2540	–
COc1cc2c(cc1OC)/C(=N\NC(=O)C(NC(=O)C(C)c1ccc(CC(C)C)cc1)C(C)C)C(CC1CCN(Cc3ccccc3)CC1)C2 (centres undefined)	400	3230	–
COc1ccc2c(c1)c(CC(=O)N/N=C1\c3cc(OC)c(OC)cc3CC1CC1CCN(Cc3ccccc3)CC1)c(C)n2C(=O)c1ccc(Cl)cc1 (centres undefined)	510	8530	–
COc1cc2c(cc1OC)/C(=N\NC(=O)C(CC(C)C)NC(=O)C(C)c1ccc(CC(C)C)cc1)C(CC1CCN(Cc3ccccc3)CC1)C2 (centres undefined)	350	20200	–
COc1cc2c(cc1OC)/C(=N\NC(=O)CCNC(=O)C(C)c1ccc(CC(C)C)cc1)C(CC1CCN(Cc3ccccc3)CC1)C2 (centres undefined)	4850	11600	–
COc1cc2c(cc1OC)/C(=N\NC(=O)C(C)c1ccc(CC(C)C)cc1)C(CC1CCN(Cc3ccccc3)CC1)C2 (centres undefined)	15	800	inhibition [5]: Dose-Dependent Effect; inhibition [6]: Dose-Dependent Effect; Activity (BV-2 [7]): 1.19; Activity (BV-2 [8]): 0.78; Activity (BV-2 [9]): 1.51; Activity (BV-2 [10]): 1.12; Activity (PC-3 [11]): Non-Toxic; Activity (PC-3 [12]): Dose-Dependent Effect; Stability [13]: Stable; Ratio IC50 (Cholinesterase [14]): 5
CC(=O)Oc1ccccc1C(=O)O	–	–	inhibition (Acetylcholinesterase [3]): inactive; inhibition (Cholinesterase [4]): inactive
